Patent US8129365B2, “Water-soluble, fluorescent compounds for detection of potassium ions” (The Regents of the University of California, priority 2005, dated 2012)
Entries after “also recorded” stand apart in the source; their conditions may differ.

How the values were obtained:
cell viability or growth = assay: Cell viability or growth; assay type: cell-based
Excerpt: (§1) TAC-Red fluorescence was not sensitive to divalent cations (Ca^++ or Mg^++) or various anions, or to pH in the range 6-8 (FIG. 1, panel e).

[1] = Stop-flow measurement of TAC-Red fluorescence response; assay type: physicochemical; conditions: K^+ increased from 0 to 5 mM
Protocol: The TAC-Red fluorescence response was rapid when K^+ was increased from 0 to 5 mM in a stop-flow measurement (FIG. 1, panel c, inset), with greater than 90% of the fluorescence increase occurring in under 1 ms.

Water solubility = assay type: physicochemical
[2] = Fluorescence titrations of TAC-Red (spectroscopic analysis); assay type: physicochemical
Protocol: The TAC-Red compound was subjected to spectroscopic analysis. Fluorescence measurements were carried out by standard procedures using a FluoroMax-3 fluorimeter. Fluorescence titrations were carried out at 540 nm excitation and 574 nm emission wavelengths using aqueous solution containing about 7 μM at pH 7.0 (buffered with 5 mM HEPES) unless titrated with NaOH/HCl to other pH.
Spectra in FIG. 1, Panel b were obtained using balanced KCl/choline Cl to keep ionic strength constant at 300 mM. The titration in FIG. 1, panel c was done by adding indicated NaCl/KCl from concentrated stock solutions. The data in FIG. 1, panel d were obtained at constant ionic strength (300 mM) using NaCl or choline Cl to balance the KCl.

[3] = system: Fisher rat thyroid epithelial cell monolayers; assay: Transport across epithelial cell monolayers; assay type: in vitro ADME
Excerpt: as §1

brain cortex ECS = assay: TAC-Red [K^+]o measurements in brain cortex (spreading depression); assay type: in vivo, mice; conditions: freshly cut brain slices, 5 min transdural loading with about 50 μM
Protocol: TAC-Red [K^+]o measurements in brain cortex. Wildtype and AQP4 null mice in a CD1 genetic background (30-35 g body weight/age 10-12 weeks) were used (described in Ma et al. Ma et al. J. Clin. Invest. 100, 957-962 (1997)). These mice are phenotypically normal at baseline and have normal brain architecture; however they manifest altered brain swelling in response to cytotoxic and vasogenic forms of edema. Mice were anesthetized with 2,2,2-tribromoethanol (125 mg/kg, intraperitoneal (ip)) and the head was immobilized in a standard mouse stereotactic frame. Body temperature was maintained at 36-37° C. using a heating pad. The skull was exposed by a midline skin incision. A 2.7 mm diameter circular area of the thin, semi-translucent skull bone located 0.5 mm lateral to the midline and 1 mm posterior to the bregma was removed using a microdrill under microscope to expose intact dura with underlying brain. […]
Fluorescence was measured using a 1.6× objective lens (working distance 24 mm, numerical aperture 0.21), and custom filter set for TAC-Red (HQ, Chroma). […] Fluorescence was imaged using a 14-bit 1024×1024 pixel cooled CCD camera (CoolSnap HQ, Photometrics). […]
Image analysis. […] Half-times (t1/2) for the increasing and decreasing phases of TAC-Red fluorescence were determined by exponential regression analysis. […]

CHO-K1 cells [4] = assay: K^+ efflux measured by TAC-Red fluorescence, plate reader assay; assay type: cell-based; conditions: 10 μM preincubation
Protocol: (§2) TAC-Red as an indicator for measurement of K^+ channel function for high-throughput screening applications. CHO-K1 cells (ATCC CCL-61) were cultured in Ham's F12 media supplemented with 10% fetal bovine serum, 100 U/ml penicillin and 100 μg/ml streptomycin at 37° C. in a 5% CO2/95% air atmosphere and used at ˜90% confluence. For measurements using epifluorescence microscopy cells were grown until reaching confluency on 18-mm diameter round glass coverslips. For fluorescence plate reader assays cells were cultured on Costar 96-well black plates with a clear flat bottom and used when just confluent. […]
Plate reader assay: Measurements were done using a Fluostar plate reader (BMG LabTechnologies) with syringe pump for automated solution addition. […] The plate was loaded onto plate reader and after 6 s of fluorescence measurement 30 μl of TAC-Red (150 μM) in 0 K^+ buffer was added via syringe pump. TAC-Red fluorescence was excited using an HQ545/30 filter (Chroma) and emitted fluorescence was detected through a HQ585/30 filter.

CHO-K1 cells [5] = assay: K^+ efflux in CHO cells measured by TAC-Red fluorescence, fluorescence microscopy; assay type: cell-based; conditions: 10 μM pre-incubation, epifluorescence microscopy
Protocol: as §2
Fluorescence microscopy: For most experiments cells on coverslips were incubated in 1 ml high K^+ buffer for 2 min prior to experiments. […] The washed cells were immediately placed cell-side down on the slide and fluorescence measured continuously. TAC-Red fluorescence was excited at 545±30 nm and detected through a 610±75 nm filter (570 nm dichroic) using a long working distance 25× air objective lens.
TAC-Red was used as an indicator of extracellular K^+, such that the rate of initial K^+ efflux into a 0 K^+ buffer could be measured. […]

Row | Water solubility (Water solubility) | Sensitivity of fluorescence to pH ([2]; pH in the range 6-8) | Transport across cell monolayers ([3]; in 6 hours) [%] | Depth of TAC-Red staining beneath the brain surface (brain cortex ECS) [μm] | SMILES | Effect on cell viability or growth (cell viability or growth) | Share of fluorescence increase occurring in under 1 ms [1] | Effect of Na^+ on TAC-Red fluorescence vs. K^+ ([2]; 150 mM Na^+ in place of 150 mM choline^+) | Effect of Na^+ on TAC-Red fluorescence ([2]; 50 and 150 mM Na^+) | Sensitivity of fluorescence to divalent cations ([2]; Ca^++ or Mg^++) | TAC-Red fluorescence increase ([2]; K^+ concentration increasing from 0-200 mM, 540 nm excitation, 574 nm emission, pH 7.0) | K^+ sensitivity of fluorescence ([2]; K^+ in the range 0 to >100 mM) | K^+ sensitivity of fluorescence ([2]; K^+ range 0-40 mM expected in the brain ECS) | K^+-to-Na^+ selectivity ratio ([2]; at 50 mM) | Specificity in titrations with monovalent cations ([2]; monovalent cations) | Sensitivity of fluorescence to various anions ([2]; various anions) | Membrane permeability [3] | Effect on K^+ efflux (CHO-K1 cells [4]) | Effect on K^+ efflux (CHO-K1 cells [5])
1 | water soluble | not sensitive | < 1 | > 500 | COCCOc1cc(-c2c3ccc(=[N+](C)C)cc-3oc3cc(N(C)C)ccc23)ccc1N1CCOc2cc(C)ccc2N2CCOCCOCCN(CCOCCOCC2)c2ccc(C)cc2OCC1.[Cl-] [TAC-Red, {6-Dimethylamino-9-[4-(6,7,9,10,12,13,20,21,23,24-decahydro-2,17-dimethyl-5,14-(ethanoxyethanoxyethano)-5H,14H,22H-dibenzo[h,q][1,4,10,16,7,13,19]tetraoxatriazacyclo-heneicosin-22-yl)-3-(2-methoxyethoxy)phenyl]xanthen-3-ylidene}dimethylammonium chloride] | did not affect | greater than 90% | did not affect | increased slightly | not sensitive | more than 23 fold | highly sensitive | excellent K^+ sensitivity | about 37 | specificity for K^+, Rb^+ and Cs^+ over Na^+ and Li^+ | not sensitive | membrane impermeant; also recorded: membrane-impermeable | – | –
2 | – | – | – | – | CC(C)[C@@H]1NC(=O)[C@H](C)OC(=O)[C@@H](C(C)C)NC(=O)[C@@H](C(C)C)OC(=O)[C@H](C(C)C)NC(=O)[C@H](C)OC(=O)[C@@H](C(C)C)NC(=O)[C@@H](C(C)C)OC(=O)[C@H](C(C)C)NC(=O)[C@H](C)OC(=O)[C@@H](C(C)C)NC(=O)[C@@H](C(C)C)OC1=O [valinomycin] | – | – | – | – | – | – | – | – | – | – | – | – | increased K^+ efflux | increased K^+ efflux
